This series deals with Yap1 mRNA. Put plainly: Antisense inhibition of human Yap1 in SNU-449 cells by modified oligonucleotides, single dose (Example 5, RTS36584). It counts as cell-based. The method, boiled down:
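Free uptake, 2,000 nM, ~48 h, SNU-449 at 10,000 cells/well. Read-out: qRT-PCR (RTS36584), RIBOGREEN-normalised, expressed as % UTC. Asterisk = oligo hits amplicon region.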

The mark [1] stands for this setting: Table 48, Yap1 mRNA level relative to untreated control, modified oligonucleotides targeting SEQ ID NO.: 1 and 2.
Setting [2] is: Table 43 experiment, SNU-449 cells, 10,000 cells per well, free uptake, 2,000 nM, approximately 48 hours, RTS36584, Yap1 mRNA normalized to RIBOGREEN, relative to untreated control cells.
The mark [3] stands for this setting: Table 51, Yap1 mRNA remaining as percent of untreated control (UT), SNU-449 cells, single dose.
[4] abbreviates: Table 40 (separate experiment), SNU-449 cells, 10,000 cells per well, free uptake, 2,000 nM oligonucleotide, approx. 48 hours, RTS36584, normalized to RIBOGREEN, Yap1 mRNA relative to untreated control.
The mark [5] stands for this setting: Yap1 mRNA, percent of untreated control, modified oligonucleotides targeting SEQ ID NO: 1 and 2, Table 47.
Setting [6] is: Table 50, Yap1 mRNA remaining as percent of untreated control (UT), SNU-449 cells, single dose.
[7] abbreviates: Table 46, Yap1 mRNA as percent of untreated control, SNU-449 cells, single dose.
Where [8] appears, read: Table 52, Yap1 mRNA, modified oligonucleotides targeting SEQ ID NO: 1 and 2.
[9] abbreviates: Table 44 experiment, SNU-449 cells, 10,000 cells per well, free uptake, 2,000 nM, approximately 48 hours, RTS36584, Yap1 mRNA normalized to RIBOGREEN, relative to untreated control cells.
[10] abbreviates: Table 49, Yap1 mRNA level relative to untreated control, modified oligonucleotides targeting SEQ ID NO.: 1 and 2.
Where [11] appears, read: Table 39, SNU-449 cells, 10,000 cells per well, free uptake, 2,000 nM oligonucleotide, approx. 48 hours, RTS36584, normalized to RIBOGREEN, Yap1 mRNA relative to untreated control.

Strand notation (5' to 3'): a small letter for the sugar, then the base; units joined by * are phosphorothioate-linked, units joined directly phosphodiester-linked; [ ] holds rarer units or linkages, { } end groups; capitals alone tell only the bases. e = 2'-O-(2-methoxyethyl) (MOE); k = constrained ethyl (cEt); [5mC] = 5-methylcytosine; d = 2'-deoxy (DNA); m = 2'-O-methyl

Turning to “1198288 (kG*kA*kA*dA*dT*dT*dG*dT*d[5mC]*dT*d[5mC]*dA*kT*eG*k[5mC]*e[5mC]; antisense) [Compound 1198288]”, under setting [1], the “YAP1 (% UT)” value is listed as 10 % UT.
As for “1198263 (kA*kT*dG*dT*dA*dA*dT*dA*dT*dT*dG*e[5mC]*eA*eA*kT*k[5mC]; antisense) [Compound 1198263]”, the “YAP1 (% UTC)” value under setting [2] was found to be 114 % UTC.
With “1197241 (antisense kA*k[5mC]*kT*dG*mA*dG*dG*dT*dA*dT*dA*dA*d[5mC]*kT*kG*kG) [Compound 1197241]”, the “YAP1 (% UT)” value under setting [3] worked out at 19 % UT.
As for “1198723 (kA*eG*kT*dA*dT*dG*dT*dG*dG*d[5mC]*dA*dA*eT*eA*kA*kT; antisense) [Compound 1198723]”, the “YAP1 (% UTC)” value under setting [4] amounted to 57 % UTC.
“1197183 (antisense kA*k[5mC]*kT*dT*dT*dT*dA*d[5mC]*dA*dT*dT*dA*dG*kG*kA*kA) [Compound 1197183]”: under setting [5], the “YAP1 (% UT)” value was 41 % UT.
Take “1197273 (kT*kA*kA*dG*mG*dT*dT*dT*d[5mC]*d[5mC]*d[5mC]*dA*dG*kA*kT*kT) [Compound 1197273]”: under setting [3], the “YAP1 (% UT)” value amounted to 68 % UT.
Consider “1095454 (antisense k[5mC]*kT*kG*dA*dG*dG*dT*dA*dT*dA*dA*d[5mC]*kT*kG*kG*eG) [Compound 1095454]”, for which the “YAP1 (% UT)” value under setting [6] worked out at 47 % UT.
Regarding “1198889 (kT*kT*dA*dG*dA*d[5mC]*dT*dA*dA*dG*dT*kA*eA*kG*eG*kT; antisense) [Compound 1198889]”, the “YAP1 (% UT)” value under setting [7] was 27 % UT.
As for “1200835 (k[5mC]*kA*kG*dA*dT*mU*dT*dA*dG*dG*dA*dT*dG*k[5mC]*kA*kT; antisense) [Compound 1200835]”, the “YAP1 (% UT)” value under setting [8] is recorded as 82 % UT.
Regarding “1198815 (antisense kT*kA*dG*dA*dG*dT*dA*dT*dG*dT*dG*kG*e[5mC]*kA*eA*kT) [Compound 1198815]”, the “YAP1 (% UT)” value under setting [7] worked out at 24 % UT.
In the case of “1198757 (kA*eG*kT*dG*d[5mC]*dT*dT*dT*dG*dG*dA*dA*eG*eA*kT*k[5mC]; antisense) [Compound 1198757]”, under setting [4], the “YAP1 (% UTC)” value is given as 4 % UTC.
With “1197304 (k[5mC]*kT*k[5mC]*dT*mU*dA*dT*dA*dT*dG*dG*dT*dT*kT*kT*kG; antisense) [Compound 1197304]”, the “YAP1 (% UT)” value under setting [3] worked out at 45 % UT.
In the case of “1197226 (antisense kA*kG*kA*d[5mC]*dT*dA*dA*dG*dT*dA*dA*dG*dG*kT*kT*kT) [Compound 1197226]”, the “YAP1 (% UT)” value under setting [5] was 67 % UT.
As for “1198494 (antisense kG*kT*dG*d[5mC]*dT*dT*dT*dG*dG*dA*dA*eG*kA*eT*k[5mC]*eT) [Compound 1198494]”, the “YAP1 (% UTC)” value under setting [9] stood at 15 % UTC.
For “1198532 (kA*kA*d[5mC]*dT*dT*dT*dA*dA*dA*dG*dT*eG*kT*eA*kT*eG; antisense) [Compound 1198532]”, the “YAP1 (% UTC)” value under setting [9] is recorded as 36 % UTC.
For the substance “1198356 (kT*kA*kA*dA*dG*dT*dG*dT*dA*dT*dG*dT*k[5mC]*eA*kG*eA; antisense) [Compound 1198356]”, the “YAP1 (% UT)” value under setting [10] amounted to 5 % UT.
With “1197218 (antisense kT*kT*kT*dA*dA*dA*dG*dT*dG*dT*dA*dT*dG*kT*k[5mC]*kA) [Compound 1197218]”, under setting [1], the “YAP1 (% UT)” value turned out to be 29 % UT.
Turning to “1198849 (kG*kA*dT*dT*dT*dA*dG*dG*dA*dT*dG*k[5mC]*eA*kT*eG*kG; antisense) [Compound 1198849]”, the “YAP1 (% UT)” value under setting [7] is recorded as 42 % UT.
For the substance “1198931 (kA*kG*dG*dA*dT*dG*d[5mC]*dA*dT*dG*dG*kT*dT*kT*dT*kT; antisense) [Compound 1198931]”, the “YAP1 (% UTC)” value (Table 45, Yap1 mRNA as percent of untreated control, SNU-449 cells, single dose) was found to be 47 % UTC.
As for “1198596 (antisense k[5mC]*kT*k[5mC]*dT*dT*dA*dT*dA*dT*dG*dG*dT*kT*kT*kT*eG) [Compound 1198596]”, the “YAP1 (% UT)” value under setting [6] worked out at 16 % UT.
Regarding “1095547 (antisense kA*k[5mC]*kT*dG*dA*dG*dG*dT*dA*dT*dA*dA*k[5mC]*eT*kG*eG) [Compound 1095547]”, under setting [10], the “YAP1 (% UT)” value is recorded as 42 % UT.
Same read-out and setting: with “1198547 (antisense kG*kG*kA*dA*dA*dT*dT*dG*dT*d[5mC]*dT*d[5mC]*kA*kT*kG*e[5mC]) [Compound 1198547]” the figure was 27 % UT.
Turning to “1200870 (kA*k[5mC]*kT*dA*dA*mG*dT*dA*dA*dG*dG*dT*dT*kT*k[5mC]*k[5mC]; antisense) [Compound 1200870]”, the “YAP1 (% UT)” value under setting [8] was 73 % UT.
For the substance “1197300 (kG*kA*kT*dT*mU*dA*dG*dG*dA*dT*dG*d[5mC]*dA*kT*kG*kG; antisense) [Compound 1197300]”, the “YAP1 (% UT)” value under setting [3] came out at 42 % UT.
In the case of “1200832 (kA*kT*kT*dT*dA*mG*dG*dA*dT*dG*d[5mC]*dA*dT*kG*kG*kT; antisense) [Compound 1200832]”, the “YAP1 (% UT)” value under setting [8] is 61 % UT.
Regarding “1198587 (antisense kG*kA*kT*dT*dT*dA*dG*dG*dA*dT*dG*d[5mC]*kA*kT*kG*eG) [Compound 1198587]”, under setting [6], the “YAP1 (% UT)” value was 41 % UT.
Same read-out and setting: with “1095435 (antisense kA*k[5mC]*kT*dG*dA*dG*dG*dT*dA*dT*dA*dA*k[5mC]*kT*kG*eG) [Compound 1095435]” the figure was 39 % UT.
In the case of “1200810 (kA*kA*k[5mC]*dA*d[5mC]*mU*dG*dA*dG*dG*dT*dA*dT*kA*kA*k[5mC]; antisense) [Compound 1200810]”, the “YAP1 (% UT)” value under setting [8] was found to be 94 % UT.
The same measure, in the same setting: with “1200861 (kT*kT*kA*dA*dA*mG*dT*dG*dT*dA*dT*dG*dT*k[5mC]*kA*kG; antisense) [Compound 1200861]” the figure was 10 % UT.
Still for that read-out and setting: with “1200823 (k[5mC]*kT*kT*dT*dG*mG*dA*dA*dG*dA*dT*d[5mC]*dT*kG*kA*kA; antisense) [Compound 1200823]” the figure was 46 % UT.
As for “1198355 (kA*kA*kA*dG*dT*dG*dT*dA*dT*dG*dT*d[5mC]*kA*eG*kA*eA; antisense) [Compound 1198355]”, the “YAP1 (% UT)” value under setting [10] stood at 6 % UT.
Turning to “1198780 (antisense kT*eA*kA*dT*dA*dT*dT*dG*d[5mC]*dA*dA*dT*e[5mC]*eT*kG*kT) [Compound 1198780]”, under setting [4], the “YAP1 (% UTC)” value amounted to 80 % UTC.
Take “1198321 (kT*kG*k[5mC]*dT*dT*dT*dG*dG*dA*dA*dG*dA*kT*e[5mC]*kT*eG; antisense) [Compound 1198321]”: under setting [1], the “YAP1 (% UT)” value worked out at 45 % UT.
Regarding “1198391 (kG*dA*dG*dG*dT*dA*dT*dA*dA*d[5mC]*dT*kG*eG*kG*e[5mC]*kA) [Compound 1198391]”, the “YAP1 (% UTC)” value under setting [11] is recorded as 29 % UTC.
Consider “1198218 (kA*kG*dG*dT*dA*dT*dA*dA*d[5mC]*dT*dG*eG*eG*e[5mC]*kA*kA; antisense) [Compound 1198218]”, for which the “YAP1 (% UTC)” value under setting [2] stood at 40 % UTC.
For “1198403 (kT*dT*dG*dG*dA*dA*dG*dA*dT*d[5mC]*dT*kG*eA*kA*eA*k[5mC]) [Compound 1198403]”, the “YAP1 (% UTC)” value under setting [11] is reported as 54 % UTC.
Take “1200784 (kT*kG*kT*d[5mC]*dT*mC*dA*dT*dG*d[5mC]*d[5mC]*dT*dT*kA*kT*kA; antisense) [Compound 1200784]”: the “YAP1 (% UT)” value under setting [3] was 19 % UT.
Same read-out and setting: with “1200798 (kT*kA*kT*dT*dA*mG*dA*dG*dT*dA*dT*dG*dT*kG*kG*k[5mC]; antisense) [Compound 1200798]” the figure was 7 % UT.
Regarding “1197255 (antisense kT*kT*kT*dA*mG*dG*dA*dT*dG*d[5mC]*dA*dT*dG*kG*kT*kT) [Compound 1197255]”, under setting [3], the “YAP1 (% UT)” value came to 38 % UT.
As to “1198502 (kA*kG*dA*dT*dT*dT*dA*dG*dG*dA*dT*eG*k[5mC]*eA*kT*eG; antisense) [Compound 1198502]”, the “YAP1 (% UTC)” value under setting [9] is 16 % UTC.
As to “1198451 (k[5mC]*dT*dA*dA*dG*dT*dA*dA*dG*dG*dT*kT*eT*k[5mC]*e[5mC]*k[5mC]; antisense) [Compound 1198451]”, under setting [11], the “YAP1 (% UTC)” value came to 48 % UTC.
As to “1198534 (kA*kG*dT*dA*dA*dG*dG*dT*dT*dT*d[5mC]*e[5mC]*k[5mC]*eA*kG*eA; antisense) [Compound 1198534]”, the “YAP1 (% UTC)” value under setting [9] is 30 % UTC.
Regarding “1198845 (kA*kG*dG*dA*dT*dG*d[5mC]*dA*dT*dG*dG*kT*eT*kT*eT*kT; antisense) [Compound 1198845]”, the “YAP1 (% UT)” value under setting [7] stood at 43 % UT.
Take “1198357 (kT*kT*kA*dA*dA*dG*dT*dG*dT*dA*dT*dG*kT*e[5mC]*kA*eG; antisense) [Compound 1198357]”: under setting [10], the “YAP1 (% UT)” value was found to be 21 % UT.
For the substance “1198806 (antisense kA*kA*dT*dT*dG*dT*d[5mC]*dT*d[5mC]*dA*dT*kG*e[5mC]*k[5mC]*eT*kT) [Compound 1198806]”, the “YAP1 (% UT)” value under setting [7] is listed as 33 % UT.
On to “1095453 (antisense kT*kG*kA*dG*dG*dT*dA*dT*dA*dA*d[5mC]*dT*kG*kG*kG*e[5mC]) [Compound 1095453]”, for which, under setting [6], the “YAP1 (% UT)” value was determined as 32 % UT.
As for “1197194 (antisense kT*kT*kA*dG*dG*dA*dT*dG*d[5mC]*dA*dT*dG*dG*kT*kT*kT) [Compound 1197194]”, under setting [5], the “YAP1 (% UT)” value is given as 37 % UT.

Source of the values: patent US11214803B2, “Modulators of YAP1 expression” (Ionis Pharmaceuticals, Inc., priority 2019, dated 2022).
